Experimental data reported in patent US7307101B2, “Use of 20-HETE synthesizing enzyme inhibitors as therapy for cerebral vascular disease” (MCW Research Foundation, Inc., priority 2000, dated 2007).
Values joined by “and” are separate entries in the source; they are usually repeats but may differ in a detail not shown here. Equal values may be shown once. Each block holds one molecule with its values, some of them ahead of it.

How the values were obtained:
cerebral blood flow = settings: intracerebroventricular injection; cited from earlier work
20-HETE formation = settings: read-out: IC50 for inhibition of 20-HETE formation; cited from earlier work
[1] = given systemically; cited from earlier work
rats with SAH = assay: Effect on rCBF after SAH, drug given before SAH; format: in vivo, rat
Protocol: Animals. Experiments were performed on male Sprague-Dawley rats (9-12 weeks old), purchased from Harlan Sprague-Dawley, Inc. (Indianapolis, Ind.). The rats were housed in an Animal Care Facility at the Medical College of Wisconsin, which is approved by the American Association for the Accreditation of Laboratory Animal Care. All protocols involving animals received approval by the Animal Care Committee of the Medical College of Wisconsin.
(§1) Surgical preparation. Rats were anesthetized with ketamine (Ketaject® 20 mg/kg i.m.) and thiobutabarbital sodium (Inactin® 50 mg/kg i.p.). A cannula was placed in the trachea and the rats were artificially ventilated using a small animal ventilator (SAR-830, CWE, Inc., Ardmore, Pa.) with a mixture of 30% O2 in N2. The femoral vein was cannulated for the infusion of drug and the rats received an i.v. infusion of 0.9% NaCl solution at a rate of […] to replace fluid losses. The femoral artery was cannulated for measurement of mean arterial pressure (MAP) and arterial blood gases. Endtidal partial pressure of carbon dioxide (pCO2) was controlled at 38 mmHg by adjusting the minute ventilation according to the reading of an CO2 analyzer (Capstar-100 IITC, Inc., Woodland Hills, Calif.). Blood samples were collected at the beginning and end of the experiment and analyzed using a blood gas analyzer (ABL 300, Radiometer, Copenhagen, Denmark) to validate the endtidal pCO2 readings. Anesthesia was maintained by administering additional amounts of thiobutabarbital (8 mg/kg i.v.) as needed. Rectal body temperature was maintained at 37±1° C.
Induction of SAH and measurement of cerebral blood flow. SAH was induced by injection of 0.3 ml autologous arterial blood into the Cisterna Magna using a modification of a posterior cranio-cervical approach of a model of SAH. Delgado T J et al., Stroke 16: 595-602 (1985); Solomon R A et al., Stroke 16: 58-64 (1985). The head of the rat was placed in a stereotactic head holder and the atlanto-occipital membrane was exposed by bluntly separating the overlying neck muscles in the midline. The occipital bone and the atlas were visualized. A 30 gauge needle attached to PE-10 was inserted using a stereomicroscope into the Cistema Magna by penetrating the atlanto-occipital membrane. Then, 0.3 ml of freshly drawn unheparinized arterial blood was injected into the Cistema Magna at a rate of 35 μl/min using a syringe pump. This created a massive SAH that was confirmed in all rats at autopsy. Blood was found overlying the cerebello-medullary junction posteriorly and around the basal artery and the vessels of the Circle of Willis.
Cerebral blood flow (CBF) was continuously measured using laser Doppler flowmetry through a thinned cranial window. […] A PF 103 laser Doppler flow (LDF) probe was positioned over the cranial window and CBF was monitored using a PF-3 laser Doppler flowmeter (Perimed, Stockholm, Sweden).
Other animals received 17-ODYA (1.5 nmol) or vehicle in a volume of 50 μl that was injected directly into the Cistema Magna using a micromanipulator and a 30 gauge needle. The CBF recorded over the last 5 minutes of the control period immediately before initiation of SAH served as the control value. […] CBF was recorded for 2 min intervals at 10, 20, 30, 60, 90 and 120 minutes after completion of the injection of the blood. The CBF data are expressed as percentage change from control.

20-HETE in CSF = assay: 20-HETE concentration in CSF after SAH; format: in vivo, rat; settings: rats, 2 hr after SAH, drug given prior to SAH
Protocol: Measurement of 20-HETE in CSF. At the end of each experiment, CSF was collected from the Cisterna Magna using a 1 ml syringe and a 30 gauge needle. […] 20-HETE concentration in CSF was measured using a new fluorescent HPLC assay that was recently described. […] Briefly, 50 ng of an internal standard 20-hydroxyeicosa-6(Z), 15(Z)-dienoic acid (WIT-002) was added to the CSF samples (50 μl). The samples were extracted with 1 mL of ethyl acetate, the extract was dried under argon and the lipid fraction was purified on a Sep-Pak Vac™ column (cat. no. WAT054955, Waters Corporation, Milford, Mass.). […] N,N-diisopropylethylamine (10 μl) was added to catalyze the reaction. The sample was reacted for 30 min at room temperature. […] The amount of 20-HETE in a sample was determined by comparing the area of the 20-HETE peak to that of the internal standard.

[2] = molecular target: human 20-HETE synthesizing enzyme; assay: Formation of 20-HETE by human renal microsomes; format: biochemical; settings: read-out: IC50, formation of 20-HETE by human renal microsomes
Protocol: All reactions were terminated by acidification with 1% formic acid. Equal volume of acetonitrile was added and finally 50% acetonitrile mixtures were subjected to HPLC analysis.

[3] = Physiological parameters (MAP, endtidal pCO2) during the SAH experiment; format: in vivo, rat; settings: rats, any time
Protocol: as §1

CYP2C9 = CYP2C9 (Homo sapiens, UniProt P11712); assay: in vitro
Chain of CYP2C9 (P11712 whole entry): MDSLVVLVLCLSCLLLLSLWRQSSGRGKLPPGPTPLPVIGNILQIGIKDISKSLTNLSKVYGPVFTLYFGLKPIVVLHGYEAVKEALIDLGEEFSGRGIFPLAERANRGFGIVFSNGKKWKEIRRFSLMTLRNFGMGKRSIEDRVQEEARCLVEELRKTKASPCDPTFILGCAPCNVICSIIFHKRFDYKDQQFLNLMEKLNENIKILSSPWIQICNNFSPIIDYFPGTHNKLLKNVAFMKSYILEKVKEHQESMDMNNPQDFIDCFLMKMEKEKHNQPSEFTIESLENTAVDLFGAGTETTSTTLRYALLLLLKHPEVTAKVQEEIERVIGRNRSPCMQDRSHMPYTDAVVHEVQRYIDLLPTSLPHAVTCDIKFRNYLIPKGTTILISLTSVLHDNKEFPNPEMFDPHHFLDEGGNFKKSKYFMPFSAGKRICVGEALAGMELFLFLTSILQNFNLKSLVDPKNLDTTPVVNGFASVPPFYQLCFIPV
From the text: (§2) Microsomes prepared from the livers of 15 humans was purchased from Nippon Nosanko.

CYP2D6 = CYP2D6 (Homo sapiens, UniProt P10635); assay: in vitro
Chain of CYP2D6 (P10635 whole entry): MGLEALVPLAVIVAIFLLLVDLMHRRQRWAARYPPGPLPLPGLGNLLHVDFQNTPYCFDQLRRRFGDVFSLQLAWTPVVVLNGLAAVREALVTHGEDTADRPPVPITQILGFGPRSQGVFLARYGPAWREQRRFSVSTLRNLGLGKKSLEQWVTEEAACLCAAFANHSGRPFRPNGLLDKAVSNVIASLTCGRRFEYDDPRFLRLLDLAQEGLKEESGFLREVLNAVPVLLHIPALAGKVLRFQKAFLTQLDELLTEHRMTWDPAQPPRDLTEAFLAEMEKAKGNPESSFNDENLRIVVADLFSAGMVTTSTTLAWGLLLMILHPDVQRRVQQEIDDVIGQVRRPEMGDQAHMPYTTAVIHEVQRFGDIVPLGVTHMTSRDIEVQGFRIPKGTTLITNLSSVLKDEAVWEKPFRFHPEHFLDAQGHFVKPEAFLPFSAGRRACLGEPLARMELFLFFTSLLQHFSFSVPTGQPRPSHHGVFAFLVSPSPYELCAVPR
From the text: as §2

CYP3A4 = CYP3A4 (Homo sapiens, UniProt P08684); assay: in vitro; settings: microsomes
Chain of CYP3A4 (P08684 whole entry): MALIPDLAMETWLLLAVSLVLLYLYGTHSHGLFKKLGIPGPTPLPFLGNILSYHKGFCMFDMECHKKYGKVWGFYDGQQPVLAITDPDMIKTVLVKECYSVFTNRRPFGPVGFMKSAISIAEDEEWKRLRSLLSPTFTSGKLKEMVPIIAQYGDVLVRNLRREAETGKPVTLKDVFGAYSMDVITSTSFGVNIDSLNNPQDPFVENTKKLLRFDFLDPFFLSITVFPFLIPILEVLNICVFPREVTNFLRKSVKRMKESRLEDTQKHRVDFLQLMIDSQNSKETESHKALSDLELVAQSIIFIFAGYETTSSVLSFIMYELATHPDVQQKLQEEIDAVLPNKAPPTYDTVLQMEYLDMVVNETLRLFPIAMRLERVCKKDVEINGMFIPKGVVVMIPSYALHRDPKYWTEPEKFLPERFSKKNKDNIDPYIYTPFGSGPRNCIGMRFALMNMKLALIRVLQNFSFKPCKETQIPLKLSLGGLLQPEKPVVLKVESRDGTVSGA
From the text: as §2

CYP2C19 = molecular target: T1, CYP2C19 (Homo sapiens, UniProt P33261); assay: CYP2C19 activity in human liver microsomes; format: in vitro ADME
T1 construct: The enzyme/substrate contained buffer, human liver microsomes and the following substrates; tissue Nippon Nosanko; host or cells: pooled human liver microsomes (15 donors)
T1 sequence (P33261 whole entry): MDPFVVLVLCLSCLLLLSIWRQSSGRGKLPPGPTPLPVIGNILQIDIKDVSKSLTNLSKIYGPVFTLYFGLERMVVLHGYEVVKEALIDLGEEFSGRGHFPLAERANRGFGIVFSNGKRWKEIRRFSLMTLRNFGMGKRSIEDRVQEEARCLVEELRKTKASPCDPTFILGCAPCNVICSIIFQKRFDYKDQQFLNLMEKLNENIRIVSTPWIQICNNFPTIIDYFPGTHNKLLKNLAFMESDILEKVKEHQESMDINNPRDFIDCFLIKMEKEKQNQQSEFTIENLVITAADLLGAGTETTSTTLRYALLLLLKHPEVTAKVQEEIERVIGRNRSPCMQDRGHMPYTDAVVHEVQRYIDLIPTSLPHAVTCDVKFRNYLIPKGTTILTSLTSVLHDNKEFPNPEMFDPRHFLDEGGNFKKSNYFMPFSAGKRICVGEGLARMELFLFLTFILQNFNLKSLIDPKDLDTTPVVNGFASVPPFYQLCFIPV
From the text: as §2

[4] = system: 20-HETE synthesizing enzyme; assay: 20-HETE formation in rat renal microsomes ([3H]-AA, Example 3); format: biochemical
Protocol: All procedure was carried out at 4° C. Renal cortex was pooled from twenty male SHR rats (6 weeks of age). They were homogenized extensively in lysis buffer (20 mM HEPES, pH 7.4, 1 mM EDTA, 100 μM p-(amidinophenyl)metanesulfonyl fluoride and 250 mM sucrose), and centrifuged at 16,000×g for 10 min. Supernatant was further centrifuged at 16,000×g for 30 min. Soluble fraction was collected and centrifuged at 200,000×g for 30 min. The resulting pellet was suspended in 50 mM MOPS buffer.
The reaction was terminated by adding formic acid and acetonitrile to a final concentration of 1% and 50%, respectively.

cerebral arteries = settings: read-out: EC50, constriction of cerebral arteries; cited from earlier work
[5] = human, microsomes, % Inhibition (duplicate) CYP2D6
[6] = positive control, concentration not given
[7] = only at very high concentrations

Compound: CS(=O)(=O)NC(=O)CCCCCCCCCC=C(Br)Br [DDMS]
- effect on baseline cerebral blood flow (cerebral blood flow): no effect
- IC50 (20-HETE formation): 3000 nM
- crossing of the blood brain barrier [1]: does not cross the blood-brain barrier

- IC50 [2]: 1.8 ± 0.8 µM
- endtidal pCO2 versus vehicle [3]: no significant differences
- % Inhibition (duplicate) CYP2C9 (CYP2C9; human, microsomes, 10 µM): 23%
- inhibition at 10 µM (CYP2C9; human, microsomes, % Inhibition (duplicate) CYP2C9): 20 to 30%
- inhibition at 10 µM (CYP2D6; [5]): -3%
- % Inhibition (duplicate) CYP3A4 (CYP3A4; 10 µM): 29%
- inhibition at 10 µM (CYP3A4; % Inhibition (duplicate) CYP3A4): 20 to 30%
- inhibition at 10 µM (CYP2C19; human, human liver microsomes, probe 14C-(S)-mephenyloin (4′-hydroxylation), inhibitor 10 μM, read-out: % Inhibition (duplicate) CYP2C19): 10%
Compound: C#CCCCCCCCCCCCCCCCC(=O)O [17-ODYA, 17-Octadecynoic acid]
- fall in cerebral blood flow following SAH (rats with SAH; 1.5 nmol into the Cisterna Magna of rats): completely blocked
- reduction of the initial fall in rCBF at 10 min (rats with SAH; rats pretreated before SAH, HET0016 10 mg/kg i.v. 30 min prior, 17-ODYA 1.5 nmol intrathecally): about 40%
- time after induction of SAH within which rCBF recovered fully to values not different from control (rats with SAH; rats pretreated before SAH, HET0016 10 mg/kg i.v., 17-ODYA 1.5 nmol intrathecally): ≤ 90 min
- IC50 (20-HETE formation): 1000 nM
- concentration of 20-HETE in the CSF versus vehicle (20-HETE in CSF): significantly lower concentration
- MAP (blood pressure) versus vehicle [3]: no difference
- crossing of the blood brain barrier [1]: does not cross the blood brain barrier

Compound: C=C[C@H]1C[N@@]2CC[C@H]1C[C@@H]2[C@@H](O)c1ccnc2ccc(OC)cc12 [Quinidine]
- % Inhibition (duplicate) CYP2D6 (CYP2D6; [6]): 91%

- concentrations at which the formation of 20-HETE was inhibited [4, 7]: 10 to 20 µg/mL
- concentrations at which the formation of 20-HETE was inhibited (molar) [4, 7]: 21 to 42 µM
Compound: Clc1ccc(COC(Cn2ccnc2)c2ccc(Cl)cc2Cl)c(Cl)c1 (stereo not drawn) [miconazole]

Compound: O=C(O)CCCC=CCC=CCC=CCC=CCCCCCO [20-HETE, 20-hydroxyeicosetetraenoic acid]
- EC50 (cerebral arteries): < 10 nM

Compound: Nc1ccc(S(=O)(=O)Nc2ccnn2-c2ccccc2)cc1 [sulfaphenazol]
- % Inhibition (duplicate) CYP2C9 (CYP2C9; [6]): 91%

- IC50 [2]: 38.5 ± 14.9 µM
- IC50, formation of both EETs and 20-HETE ([4]; SHR rat renal microsomes, nonselective inhibitor): approximately 20 μg/ml
- IC50 ([4]; read-out: IC50, formation of both EETs and 20-HETE (molar), SHR rat renal microsomes, nonselective inhibitor): ~150 µM
- % Inhibition (duplicate) CYP2D6 (CYP2D6; human, microsomes, 100 µM): 42%
- inhibition at 100 µM (CYP2D6; [5]): 40 to 80%
- % Inhibition (duplicate) CYP3A4 (CYP3A4; 100 µM): 81%
- % Inhibition (duplicate) CYP2C19 (CYP2C19; inhibitor 100 μM, 100 µM): 40-80% and 75%
Compound: Nn1nnc2ccccc21 [1-ABT, 1-aminobenzotriazole]
